Assays:
[1] = test system: myeloperoxidase accumulation (acetic acid-induced colitis); assay: Acetic Acid-Induced Colitis in Rats, In Vivo; design: species or system male rats (Sprague-Dawley)
Excerpt: The rat acetic acid-induced colitis bioassay has been described by J. E. Krawisz, et al. in Amer. J. Proc. Gastro. Col. Rec. Surg. 31: 11-18 (1980), and by P. Sharon and W. F. Stenson in Gastroenterolgy 88: 55-63 (1985) and 86: 453-460 (1984). Acetic acid-induced colitis is characterized by the movement of inflammatory cells into the colon, with the number of such cells in the mucosa being measured by the activity of myeloperoxidase, a marker enzyme for these cells. Positive desirable activity is indicated by a reduction in the high levels of myeloperoxidase caused by acetic acid. Male rats (Sprague-Dawley), weighing 150 to 300 g, were pretreated twice daily for two days with either the vehicle (water, or dimethylsulfoxide) or the test inhibitor compound suspended in water or dissolved in dimethylsulfoxide and orally administered. On the third day, the animals were dosed the same as on the previous two days, anesthetized with metofane, and 2 ml of 2.5% acetic acid was injected by syringe into the colonic lumen, followed immediately by 3 ml of air and a rinse consisting of 3 ml of phosphate-buffered saline (the acetic acid is present in the lumen for a sufficient period to cause inflammation without producing severe necrosis or irreversible damage). The animals were administered a second dose of the test compound in the same amount about 16 hours later. 24 hours after the acetic acid treatment, the animals were sacrificed, the colonic mucosa was surgically removed and homogenized in an aqueous buffer at pH 6 with a Tissumizer or similar device and myeloperoxidase was measured in the homogenate using o-phenylenediamine as a chromagen, as described by A. Voller, D. E. Bidwell and A. Bartlett in The Enzyme Linked Immunosorbent Assay (ELISA), Zoological Soc., London, 1979, pages 29-30. Control animals were pretreated with the vehicle and saline in place of acetic acid.

[2] = molecular target: T1, Δ^5 -lipoxygenase from rat basophilic leukemia (RBL-1) cells (Rattus norvegicus, UniProt P12527); assay: In vitro test for Δ^5-lipoxygenase inhibitors (5-HETE radioimmunoassay); assay type: biochemical; details: for IC50: RBL-1 5-LO, 5-HETE formation, read-out: Inhib. of Δ^5 Lipoxygenase IC50
T1 construct: The isolated cytosolic fraction was stored in liquid N2 for up to 8 weeks without loss of 5-LO enzyme activity; endogenous in cells; host or cells: RBL-1 cells (ATCC CRL 1378), 113,000×g supernatant (cytosol)
T1 sequence (P12527 1-673): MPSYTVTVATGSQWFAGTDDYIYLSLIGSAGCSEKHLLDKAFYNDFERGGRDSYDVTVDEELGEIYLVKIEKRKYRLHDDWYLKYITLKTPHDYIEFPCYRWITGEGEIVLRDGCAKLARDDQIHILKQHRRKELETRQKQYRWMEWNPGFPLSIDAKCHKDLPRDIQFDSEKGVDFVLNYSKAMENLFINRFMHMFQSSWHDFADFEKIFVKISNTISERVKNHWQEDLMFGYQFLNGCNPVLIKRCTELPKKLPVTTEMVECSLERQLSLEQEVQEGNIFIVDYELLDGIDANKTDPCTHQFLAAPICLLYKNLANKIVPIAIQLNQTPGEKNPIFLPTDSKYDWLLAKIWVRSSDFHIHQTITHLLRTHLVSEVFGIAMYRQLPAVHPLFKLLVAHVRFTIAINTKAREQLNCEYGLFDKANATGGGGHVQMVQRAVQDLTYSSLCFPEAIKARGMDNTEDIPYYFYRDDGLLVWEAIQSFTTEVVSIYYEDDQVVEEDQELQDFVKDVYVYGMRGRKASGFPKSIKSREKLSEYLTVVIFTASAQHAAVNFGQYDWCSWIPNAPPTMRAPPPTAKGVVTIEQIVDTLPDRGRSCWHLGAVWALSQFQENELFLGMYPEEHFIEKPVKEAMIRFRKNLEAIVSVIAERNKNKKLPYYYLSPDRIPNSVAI
Procedure: RBL-1 cells (CRL 1378) were obtained from the American Type Culture Collection, Rockville, MD. DMEM and glutamine were purchased from Flow Labs, McLean, Va. FBS (Gibco, Grand Island, N.Y.) was heat-inactivated for 1 hour at 56° C. Reagents for protein determinations were obtained from Biorad, Rockville Center, N.Y. Arachidonic acid (approx. 99%), ATP (disodium salt), BHT, dextran (clinical grade), tetrasodium EDTA, gelatin, gentamycin sulfate solution, reduced glutathione, 1 M HEPES buffer, indomethacin, NaCl, reduced NADPH, Trizma 7.2, and Trizma 8.5 were purchased from Sigma Chemical, St. Louis, Mo. CaCL2 dihydrate, Norit A charcoal, and citric acid monohydrate were obtained from Fisher Scientific, Pittsburgh, Pa. […] A synthetic 5-HETE standard was supplied by Dr. M. Rosenberger, Dept. of Medicinal Chemistry, Hoffmann La-Roche, Nutley, N.J.; [see Corey, E. J., and Hashimoto, S. (1981) Tet. […] Approximately 7-9 days after thawing, RBL-1 cells growing in log phase were seeded at a density of 7500 viable cells/ml in a closed 89-liter spinner flask. […] RBL-1 cells were harvested by centrifugation at 4° C. at 1500×g for 10 minutes and were washed 3 times with ice cold 0.05M tris-hCl, pH 7.2, tetrasodium EDTA (buffer 1). The cells were washed last in 0.05M Tris-HCl containing 14 μM indomethacin, 1 mM glutathione, 1.5 mM NaCl, and 1 mM tetrasodium EDTA (buffer 2), resuspended at a density of 5×108'/ml approximately 10 ml) and disrupted manually at 4° C. using a 40 ml Dounce (type A pestle) homogenizer. After 5 minutes of homogenization, 95% cell lysis was confirmed by phase contrast microscopy. The broken cells were diluted 1:2 with buffer 2 and centrifuged at 12,380×g for 10 minutes at 4° C. to pellet cellular debris and granules. The 12,380×g supernatant was centrifuged at 113,000×g for 60 minutes to pellet microsomes. The high-speed supernatant (5.9±0.48 mg/ml protein) was frozen immediately in 1 ml aliquots using a dry ice/acetone bath. The isolated cytosolic fraction was stored in liquid N2 for up to 8 weeks without loss of 5-LO enzyme activity. Compounds were dissolved at 25 mM concentration in DMSO, then diluted to final concentrations using 95% ethanol. For a typical enzyme assay, the partially purified 5-LO preparation was preincubated with drug or vehicle for 10 minutes at 30° C. The assay tubes were then transferred at a 37° C. water bath where they received arachidonic acid (8.25 μM final concentration) to initiate 5-LO activity. […] The samples were immediately cooled on ice and neutralized by dilution with 0.05M Tris-HCl, pH 8.5, which contained 25 mg/1 BHT. A boiled cytosol control was placed at the end of each assay to emasure non-enzymatic oxidation of arachidonic acid. […] Under the assay conditions described, the 5-LO catalyzed the conversion of arachidonic acid to 5-HPETE which, as a consequence of peroxidase activity, was reduced to 5-HETE. A specific radioimmunoassay was employed to quantitate the amount (pmoles) of 5-HETE formed during the enzyme reaction. To prepare the immunogen, Dr. M. Rosenberger (Dept. of Medicinal Chemistry) converted the racemic 5-HETE lactone (Corey, E. J., and Hashimoto, S. (1981) Tet. Letters, 22, 299-302) to its hydrazine derivative. The hydrazide was conjugated to thiolated Keyhole Limpet Hemocyanin (Young, […]., and Rokach, J. (1982) Prostaglandins 23, 603-613) using N-ethyl-maleimide as previously described for LTB4 by (Young, R., N, Zomboni, R. and Rokach, J. 91983) Prostaglandins, 26, 605-613). New Zealand White rabbits received multiple intradermal injections on their backs with […] conjugate emulsified in complete Freund's adjuvant. A schedule of injections reported by Salmon (Salmon, J. A. (1978) Prostaglandins, 15, 383-397) was followed. After the monthly i.p. booster injections, blood was obtained from the marginal ear vein 5-7 days later and assessed for antibody titer. […]

Carrageenan pleurisy = assay: Carrageenan Pleurisy Test (In Vivo); design: species or system male Lewis rats; details: Rattus norvegicus, po, read-out: Rat Carrageenan Pleurisy % Inhib. of Exudate Volume
Procedure: The animals utilized in these studies were male Lewis rats (Charles River Breeding Laboratories) weighing between 230-250 g. […] At 5 or 24 hours after CG injection, the rats were killed by decapitation, exsanguinated, and the pleural cavity exposed by cutting the ribs on both sides of the sternum. The exudate fluid was removed from the pleural cavity with disposable plastic pipettes and its volume quantitated. The pleural cavity was then washed once with phosphate buffered saline containing fetal bovine serum (1:1) and the washings combined with the exudate. The total number of cells in the pleural cavity was quantitated using a Coulter Counter (Model ZM) adjusted to exclude any contaminating RBC. (Published in "Plant Flavonoids in Biology & Medicine: Biochemical, Pharmacological and Structure-Activity Relationships" p. 231-242 (1986) Alan R. Liss, Inc.)

CCCc1c(OCCCCCc2ccc(O)c(O)c2)ccc(C(C)=O)c1O [1-[4-[5-(3,4-Dihydroxyphenyl)pentyloxy]-2-hydroxy-3-propylphenyl]-1-ethanone]
Rat Acetic Acid Colitis Model % Inhib. of Myeloperoxidase Accumulation ([1]; 10 mg/kg p.o): 52 ± 6%

CCCc1c(OCCCCCCc2cccc(O)c2O)ccc(C(C)=O)c1O [1-[4-[6-(2,3-Dihydroxyphenyl)hexyloxy]]
Rat Acetic Acid Colitis Model % Inhib. of Myeloperoxidase Accumulation ([1]; 10 mg/kg p.o): 51 ± 5%

CCCc1c(OCCCCCCc2cccc(O)c2O)ccc(C(=O)O)c1OC(C)=O [2-Acetyloxy-4-[6-(2,3-dihydroxyphenyl)hexyloxy]-3-propylbenzoic acid]
IC50 [2]: 190 nM | inhibition in vivo at 100 mg/kg (Carrageenan pleurisy; at 100 mg/kg p.o): 42%

Nc1cc(C(=O)O)ccc1OCCCCCCc1cccc(O)c1O [3-Amino-4-[6-(2,3-dihydroxyphenyl)hexyloxy]benzoic acid]
Rat Acetic Acid Colitis Model % Inhib. of Myeloperoxidase Accumulation ([1]; 1 mg/kg p.o): 55 ± 7%

CCCc1c(OCCc2ccc(O)c(O)c2)ccc(C(=O)O)c1O [4 [2 (3,4 Dihydroxyphenyl)ethoxy]-2 hydroxy 3 propylbenzoic acid]
Rat Acetic Acid Colitis Model % Inhib. of Myeloperoxidase Accumulation ([1]; 10 mg/kg p.o): 56 ± 6%

CCCc1c(OCCCc2cccc(O)c2O)ccc(C(=O)O)c1O [4-[3-(2,3-Dihydroxyphenyl)propoxy]-2-hydroxy-3-propylbenzoic acid]
Rat Acetic Acid Colitis Model % Inhib. of Myeloperoxidase Accumulation ([1]; 10 mg/kg p.o): 54 ± 5%

CCCc1c(OCCCCCc2c(O)c(O)c(Cl)c(Cl)c2Cl)ccc(C(=O)O)c1O [4-[5-(2,3,4-Trichloro-5,6-dihydroxyphenyl)pentyloxy]-2-hydroxy-3-propylbenzoic acid]
Rat Acetic Acid Colitis Model % Inhib. of Myeloperoxidase Accumulation ([1]; 1 mg/kg p.o): 115 ± 21%

CCCc1c(OCCCCCc2c(O)c(O)cc(Cl)c2Cl)ccc(C(=O)O)c1O [4-[5-(2,3-Dichloro-5,6-dihydroxyphenyl)pentyloxy]-2-hydroxy-3-propylbenzoicacid]
Rat Acetic Acid Colitis Model % Inhib. of Myeloperoxidase Accumulation ([1]; 1 mg/kg p.o): 73 ± 5%

CCCc1c(OCCCCCc2c(Cl)ccc(O)c2O)ccc(C(=O)O)c1O [4-[5-(2-Chloro-5,6-dihydroxyphenyl)pentyloxy]-2-hydroxy-3-propylbenzoic acid]
Rat Acetic Acid Colitis Model % Inhib. of Myeloperoxidase Accumulation ([1]; 3 mg/kg p.o): 54 ± 9%

CCCc1c(OCCCCCCc2cccc(OC(C)=O)c2OC(C)=O)ccc(C(=O)O)c1O [4-[6-[2,3-Bis(acetyloxy)phenyl]hexyloxy]-2-hydroxy-3-propylbenzoic acid]
IC50 [2]: 150 nM | inhibition in vivo at 75 mg/kg (Carrageenan pleurisy; at 75 mg/kg p.o): 43%

CCCc1c(OCCCCCC(=O)c2cc(O)c(O)cc2F)ccc(C(=O)O)c1O [4-[[6-(2-Fluoro-4,5-dihydroxyphenyl)-6-oxohexyl]oxy]-2-hydroxy-3-propylbenzoic acid]
Rat Acetic Acid Colitis Model % Inhib. of Myeloperoxidase Accumulation ([1]; 10 mg/kg p.o): 40 ± 5%

CCCc1c(OCCCCCCc2cc(C)c(O)c(O)c2C)ccc(C(=O)O)c1O [4-[[6-(3,4-Dihydroxy-2,5-dimethylphenyl)hexyloxy]-2-hydroxy-3-propylbenzoicacid]
Rat Acetic Acid Colitis Model % Inhib. of Myeloperoxidase Accumulation ([1]; 3 mg/kg p.o): 37 ± 6% | Rat Acetic Acid Colitis Model % Inhib. of Myeloperoxidase Accumulation ([1]; 10 mg/kg p.o): 85 ± 13%

CCCc1c(OCCCCCC(=O)c2ccc(O)c(O)c2)ccc(C(=O)O)c1O [4-[[6-(3,4-Dihydroxyphenyl)-6-oxohexyl]oxy]-2-hydroxy-3-propylbenzoic acid]
inhibition at 1 µM ([2]; read-out: Inhib. of Δ^5 Lipoxygenase, % inhibition at 1 μM): 51%
